Experimental data taken from ChEMBL document CHEMBL4673273, “Development of autotaxin inhibitors: A series of tetrazole cinnamides” (Bioorg Med Chem Lett, 2021).

Test system: not listed separately
Experiment: Half life in Sprague-Dawley rat at 1 mg/kg, iv
Assay type: ADME, organism-based
Conditions: in vivo

SMILES	half-life [h]
Cc1nnn(Cc2cc(Cl)ccc2/C=C/C(=O)N2CCN(Cc3coc(C)n3)CC2)n1	0.8
Cc1nnn(Cc2cc(C(F)(F)F)ccc2/C=C/C(=O)N2CCC(c3nnc(C)o3)CC2)n1	3.6

Target: T1, Autotaxin (Homo sapiens, UniProt Q13822)
Experiment: Inhibition of ATX in human serum assessed as reduction in LPA (18:1) level by LC-MS analysis
Assay type: cell-free
Conditions: not given

SMILES	IC50 [nM]
Cc1nnn(Cc2cc(C(F)(F)F)ccc2/C=C/C(=O)N2CCC(c3nnc(C)o3)CC2)n1	12

Test system: not listed separately
Experiment: Volume of distribution at steady state in Sprague-Dawley rat at 1 mg/kg, iv
Assay type: ADME, organism-based
Conditions: in vivo, read-out: Vdss

SMILES	Vd [L/kg]
Cc1nnn(Cc2cc(Cl)ccc2/C=C/C(=O)N2CCN(Cc3coc(C)n3)CC2)n1	1.6
Cc1nnn(Cc2cc(C(F)(F)F)ccc2/C=C/C(=O)N2CCC(c3nnc(C)o3)CC2)n1	1.8

Test system: not listed separately
Experiment: Clearance in Sprague-Dawley rat at 1 mg/kg, iv
Assay type: ADME, organism-based
Conditions: in vivo

SMILES	clearance [mL/min/kg]
Cc1nnn(Cc2cc(Cl)ccc2/C=C/C(=O)N2CCN(Cc3coc(C)n3)CC2)n1	45
Cc1nnn(Cc2cc(C(F)(F)F)ccc2/C=C/C(=O)N2CCC(c3nnc(C)o3)CC2)n1	15

Test system: not listed separately
Experiment: Metabolic stability in human liver microsomes assessed as intrinsic clearance
Assay type: ADME, Microsome
Conditions: read-out: CLH

SMILES	microsomal CLint [µL/min/mg]
Cc1ncn(C2CCN(C(=O)/C=C/c3ccc(C(F)(F)F)cc3Cn3nnc(C)n3)CC2)n1	16
Cc1nnn(Cc2cc(Cl)ccc2/C=C/C(=O)N2CCN(Cc3ccc(F)cc3)C[C@H]2C)n1	230
Cc1nnn(Cc2cc(C(F)(F)F)ccc2/C=C/C(=O)N2CCC(c3nnc(C)o3)CC2)n1	13
Cc1nnn(Cc2cc(C(F)(F)F)ccc2/C=C/C(=O)N2CCC(c3noc(C)n3)CC2)n1	19

Test system: not listed separately
Experiment: Cmax in Sprague-Dawley rat at 10 mg/kg, po
Assay type: ADME, organism-based
Set-up: route oral, dose 10 mg/kg
Conditions: in vivo

SMILES	Cmax [µM]
Cc1nnn(Cc2cc(Cl)ccc2/C=C/C(=O)N2CCN(Cc3coc(C)n3)CC2)n1	2.8
Cc1nnn(Cc2cc(C(F)(F)F)ccc2/C=C/C(=O)N2CCC(c3nnc(C)o3)CC2)n1	5.1

Test system: not listed separately
Experiment: Oral bioavailability in Sprague-Dawley rat at 10 mg/kg
Assay type: ADME, organism-based
Conditions: in vivo

SMILES	bioavailability [%]
Cc1nnn(Cc2cc(Cl)ccc2/C=C/C(=O)N2CCN(Cc3coc(C)n3)CC2)n1	52
Cc1nnn(Cc2cc(C(F)(F)F)ccc2/C=C/C(=O)N2CCC(c3nnc(C)o3)CC2)n1	94

Target: Voltage-gated inwardly rectifying potassium channel KCNH2 (Homo sapiens, UniProt Q12809)
Sequence (Q12809 whole entry): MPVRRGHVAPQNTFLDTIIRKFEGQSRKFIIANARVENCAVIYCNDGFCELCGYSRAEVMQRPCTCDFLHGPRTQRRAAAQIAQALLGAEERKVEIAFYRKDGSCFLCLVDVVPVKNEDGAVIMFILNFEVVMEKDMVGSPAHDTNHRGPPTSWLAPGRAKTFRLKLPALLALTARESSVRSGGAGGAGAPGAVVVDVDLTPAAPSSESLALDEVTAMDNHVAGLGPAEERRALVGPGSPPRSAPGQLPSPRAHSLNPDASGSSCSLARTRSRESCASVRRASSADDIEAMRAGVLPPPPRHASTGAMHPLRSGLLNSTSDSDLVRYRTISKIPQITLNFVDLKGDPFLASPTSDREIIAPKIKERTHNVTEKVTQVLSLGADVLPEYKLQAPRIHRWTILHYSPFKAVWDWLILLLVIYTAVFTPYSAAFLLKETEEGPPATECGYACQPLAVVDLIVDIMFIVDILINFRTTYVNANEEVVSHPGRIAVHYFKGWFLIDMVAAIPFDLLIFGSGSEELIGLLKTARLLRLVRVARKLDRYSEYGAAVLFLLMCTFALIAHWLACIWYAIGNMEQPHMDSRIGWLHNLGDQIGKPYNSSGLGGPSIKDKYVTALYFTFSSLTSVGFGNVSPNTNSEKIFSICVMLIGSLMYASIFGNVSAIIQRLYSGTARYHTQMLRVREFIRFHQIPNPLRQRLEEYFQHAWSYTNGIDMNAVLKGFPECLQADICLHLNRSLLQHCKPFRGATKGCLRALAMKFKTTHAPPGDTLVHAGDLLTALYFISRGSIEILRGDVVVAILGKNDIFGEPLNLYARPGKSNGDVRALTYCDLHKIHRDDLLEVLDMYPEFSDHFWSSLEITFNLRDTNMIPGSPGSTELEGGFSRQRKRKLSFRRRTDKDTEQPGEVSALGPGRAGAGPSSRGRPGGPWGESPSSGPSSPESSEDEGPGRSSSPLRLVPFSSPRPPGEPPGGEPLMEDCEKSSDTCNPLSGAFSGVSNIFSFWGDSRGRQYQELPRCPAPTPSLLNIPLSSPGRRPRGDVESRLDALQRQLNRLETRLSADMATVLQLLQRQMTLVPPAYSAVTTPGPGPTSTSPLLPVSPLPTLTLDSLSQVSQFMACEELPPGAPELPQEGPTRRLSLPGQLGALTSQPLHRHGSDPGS
Experiment: Inhibition of human ERG expressed in CHO-K1 cells by automated Qpatch clamp assay
Conditions: not given

SMILES	IC50 [nM]
Cc1nnn(Cc2cc(C(F)(F)F)ccc2/C=C/C(=O)N2CCC(Cl)CC2)n1	> 30000
Cc1nnn(Cc2cc(Cl)ccc2/C=C/C(=O)N2CCN(Cc3cnn(C)c3)CC2)n1	15000
Cc1ncn(C2CCN(C(=O)/C=C/c3ccc(C(F)(F)F)cc3Cn3nnc(C)n3)CC2)n1	25000
Cc1nnn(Cc2cc(Cl)ccc2/C=C/C(=O)N2CCN(Cc3coc(C)n3)CC2)n1	23000
Cc1nnn(Cc2cc(C(F)(F)F)ccc2/C=C/C(=O)N2CCC(C#N)CC2)n1	25000
Cc1cc(CN2CCN(C(=O)/C=C/c3ccc(Cl)cc3Cn3nnc(C)n3)CC2)on1	12000
Cc1nnn(Cc2cc(C(F)(F)F)ccc2/C=C/C(=O)N2CCC(c3nnc(C)o3)CC2)n1	23000
COc1ccc(CN2CCN(C(=O)/C=C/c3ccc(Cl)cc3Cn3nnc(C)n3)CC2)nc1	1900
Cc1nnn(Cc2cc(C(F)(F)F)ccc2/C=C/C(=O)N2CCC(c3noc(C)n3)CC2)n1	> 30000
Cc1nnn(Cc2cc(Cl)ccc2/C=C/C(=O)N2CCC(Cc3nnc(C)o3)CC2)n1	> 30000

Test system: not listed separately
Experiment: Passive Permeability of the compound across artificial membrane assessed as fraction absorbed by PAMPA assay
Conditions: not given

SMILES	Fa [%]
Cc1nnn(Cc2cc(C(F)(F)F)ccc2/C=C/C(=O)N2CCC(Cl)CC2)n1	89
Cc1nnn(Cc2cc(C(F)(F)F)ccc2/C=C/C(=O)N2CCC(C#N)CC2)n1	27

Test system: not listed separately
Experiment: Equilibrium solubility of compound at pH 6.8
Assay type: physicochemical
Conditions: buffer

SMILES	solubility thermodynamic [µM]
Cc1nnn(Cc2cc(Cl)ccc2/C=C/C(=O)N2CCN(Cc3coc(C)n3)CC2)n1	> 1000

Test system: not listed separately
Experiment: Tmax in Sprague-Dawley rat at 10 mg/kg, po
Assay type: ADME, organism-based
Conditions: in vivo

SMILES	Tmax [h]
Cc1nnn(Cc2cc(Cl)ccc2/C=C/C(=O)N2CCN(Cc3coc(C)n3)CC2)n1	0.4
Cc1nnn(Cc2cc(C(F)(F)F)ccc2/C=C/C(=O)N2CCC(c3nnc(C)o3)CC2)n1	1.3

Test system: not listed separately
Experiment: AUC (0 to infinity) in Sprague-Dawley rat at 10 mg/kg, po
Assay type: ADME, organism-based
Set-up: route oral, time infinity, dose 10 mg/kg
Conditions: in vivo

SMILES	AUC [µM·h]
Cc1nnn(Cc2cc(Cl)ccc2/C=C/C(=O)N2CCN(Cc3coc(C)n3)CC2)n1	4.4
Cc1nnn(Cc2cc(C(F)(F)F)ccc2/C=C/C(=O)N2CCC(c3nnc(C)o3)CC2)n1	23.2

Test system: not listed separately
Experiment: Metabolic stability in rat liver microsomes assessed as intrinsic clearance
Assay type: ADME, Microsome
Conditions: read-out: CLH

SMILES	microsomal CLint [µL/min/mg]
Cc1nnn(Cc2cc(Cl)ccc2/C=C/C(=O)N2CCN(C(=O)c3ccc(F)cc3)CC2)n1	71
Cc1cnn(Cc2cc(Cl)ccc2/C=C/C(=O)N2CCN(Cc3ccc(F)cc3)C[C@H]2C)n1	690
Cc1nnn(Cc2cc(C(F)(F)F)ccc2/C=C/C(=O)N2CCC(Cl)CC2)n1	89
Cc1nnn(Cc2cc(Cl)ccc2/C=C/C(=O)N2CCN(Cc3cnn(C)c3)CC2)n1	49
Cc1nnn(Cc2cc(Cl)ccc2/C=C/C(=O)N2CCC(Cc3ncc(C)o3)CC2)n1	570
Cc1ncn(C2CCN(C(=O)/C=C/c3ccc(C(F)(F)F)cc3Cn3nnc(C)n3)CC2)n1	15
Cc1nnn(Cc2cc(Cl)ccc2/C=C/C(=O)N2CCN(Cc3ccc(F)cc3)CC2)n1	470
Cc1nnn(Cc2cc(C(F)(F)F)ccc2/C=C/C(=O)N2CCC(C(F)(F)F)CC2)n1	41
Cc1nnn(Cc2cc(Cl)ccc2/C=C/C(=O)N2CCN(Cc3coc(C)n3)CC2)n1	72
Cc1nnn(Cc2cc(C(F)(F)F)ccc2/C=C/C(=O)N2CCC(C#N)CC2)n1	28
C[C@@H]1CN(Cc2ccc(F)cc2)CCN1C(=O)/C=C/c1ccc(Cl)cc1Cn1ncnn1	730
Cc1cc(CN2CCN(C(=O)/C=C/c3ccc(Cl)cc3Cn3nnc(C)n3)CC2=O)on1	87
Cc1cc(CN2CCN(C(=O)/C=C/c3ccc(Cl)cc3Cn3nnc(C)n3)CC2)on1	88
Cc1nnn(Cc2cc(Cl)ccc2/C=C/C(=O)N2CCN(Cc3ccc(F)cc3)C[C@H]2C)n1	510
Cc1nnn(Cc2cc(C(F)(F)F)ccc2/C=C/C(=O)N2CCC(c3nnc(C)o3)CC2)n1	19
COc1ccc(CN2CCN(C(=O)/C=C/c3ccc(Cl)cc3Cn3nnc(C)n3)CC2)cc1	520
Cc1noc(Cc2cc(Cl)ccc2/C=C/C(=O)N2CCN(Cc3ccc(F)cc3)C[C@H]2C)n1	580
COc1ccc(CN2CCN(C(=O)/C=C/c3ccc(Cl)cc3Cn3nnc(C)n3)CC2)nc1	190
Cc1nnn(Cc2cc(Cl)ccc2CCC(=O)N2CCN(Cc3ccc(F)cc3)C[C@H]2C)n1	> 920
Cc1nnn(Cc2cc(C(F)(F)F)ccc2/C=C/C(=O)N2CCC(c3noc(C)n3)CC2)n1	35
Cc1nnn(Cc2cc(Cl)ccc2/C=C/C(=O)N2CCNC[C@H]2C)n1	84
Cc1noc(C2CCN(C(=O)/C=C/c3ccc(C(F)(F)F)cc3Cn3nnc(C)n3)CC2)n1	36
Cc1nnn(Cc2cc(Cl)ccc2/C=C/C(=O)N2CCC(Cc3nnc(C)o3)CC2)n1	89

Target: T1, Autotaxin
Conditions: not given

SMILES	IC50 [nM]
Cc1nnn(Cc2cc(Cl)ccc2/C=C/C(=O)N2CCN(C(=O)c3ccc(F)cc3)CC2)n1	1600
Cc1cnn(Cc2cc(Cl)ccc2/C=C/C(=O)N2CCN(Cc3ccc(F)cc3)C[C@H]2C)n1	5.9
Cc1nnn(Cc2cc(C(F)(F)F)ccc2/C=C/C(=O)N2CCC(Cl)CC2)n1	60
Cc1ncn(C2CCN(C(=O)/C=C/c3ccc(C(F)(F)F)cc3Cn3nnc(C)n3)CC2)n1	16
Cc1nnn(Cc2cc(Cl)ccc2/C=C/C(=O)N2CCN(Cc3ccc(F)cc3)CC2)n1	20
Cc1nnn(Cc2cc(C(F)(F)F)ccc2/C=C/C(=O)N2CCC(C(F)(F)F)CC2)n1	13
Cc1nnn(Cc2cc(C(F)(F)F)ccc2/C=C/C(=O)N2CCC(C#N)CC2)n1	790
C[C@@H]1CN(Cc2ccc(F)cc2)CCN1C(=O)/C=C/c1ccc(Cl)cc1Cn1ncnn1	16
Cc1cc(CN2CCN(C(=O)/C=C/c3ccc(Cl)cc3Cn3nnc(C)n3)CC2=O)on1	26
Cc1nnn(Cc2cc(Cl)ccc2/C=C/C(=O)N2CCN(Cc3ccc(F)cc3)C[C@H]2C)n1	9.6
COc1ccc(CN2CCN(C(=O)/C=C/c3ccc(Cl)cc3Cn3nnc(C)n3)CC2)cc1	9.2
Cc1noc(Cc2cc(Cl)ccc2/C=C/C(=O)N2CCN(Cc3ccc(F)cc3)C[C@H]2C)n1	18
Cc1nnn(Cc2cc(Cl)ccc2CCC(=O)N2CCN(Cc3ccc(F)cc3)C[C@H]2C)n1	19
Cc1nnn(Cc2cc(Cl)ccc2/C=C/C(=O)N2CCNC[C@H]2C)n1	95

Test system: Rattus norvegicus
Experiment: (§1) In vivo inhibition of ATX in po dosed Sprague-Dawley rat assessed as inhibition of LPA formation in serum by LC-MS analysis
Assay type: functional, organism-based
Conditions: not given

SMILES	inhibition
Cc1nnn(Cc2cc(C(F)(F)F)ccc2/C=C/C(=O)N2CCC(c3nnc(C)o3)CC2)n1	Dose-dependent effect

Test system: not listed separately
Experiment: as §1
Assay type: functional, organism-based
Conditions: not given

SMILES	IC50 [nM]
Cc1nnn(Cc2cc(C(F)(F)F)ccc2/C=C/C(=O)N2CCC(c3nnc(C)o3)CC2)n1	5
